Several values for one entry are separate records, joined by “and”; a condition that tells them apart may be missing. Equal values may be shown once. Read-outs that look alike come from different tables or passages of the source.
How the values were obtained:
[1] = Pharmacokinetics of obeticholic acid taken orally, in a monocomposition or with UDCA; format: in vivo
Description: A study of the pharmacokinetics of obeticholic acid in a monocom position and as part of a composition with ursodeoxycholic acid when taken orally was conducted.

[2] = system: patients with PBC; assay: Effectiveness of the PBC treatment using various regimens (positive response, Paris2 system, 12 months); format: in vivo, human; conditions: Paris2 criteria
Description: A double-blind clinical study on the effectiveness of the combined pharmaceutical composition comprising UDCA and OCA compared to UDCA was conducted.
To study the effectiveness, the tablet embodiments No. 15 and No. 16 were used.
A study on the effectiveness of the various treatment regimens for the patients with PBC was conducted. A total of three treatment regimens were used in the study: • 1) UDCA monocomposition at a dose of 15 mg/kg/day. • 2) Combined pharmaceutical composition in the pharmaceutical form with the modified release and at a dose of UDCA 15 mg/kg+OCA 5 mg per day. • 3) Combined pharmaceutical composition in the pharmaceutical form with the modified release and at a dose of UDCA 15 mg/kg+OCA 10 mg per day.
The studies were carried out for 12 months, during which the quality of the treatment was assessed by measuring biochemical and molecular biological markers (see above).
The evaluation of the effectiveness of the treatment was carried out on the basis of the Paris2 system, according to which the criteria for a satisfactory treatment are: • ALT level≤3-fold upper limit of normal (ULN); • AST level≤2-fold ULN; • normal bilirubin level.

[3] = system: patients diagnosed with PBC; assay: Double-blind clinical study: biochemical and molecular markers in blood of PBC patients treated with UDCA or UDCA+OCA; format: in vivo, human; conditions: blood plasma
Description: To determine the concentration level values of the markers in the blood serum, chemiluminescence and enzyme immunoassay methods were used.
A double-blind clinical study was conducted on the effectiveness of the combined pharmaceutical composition comprising UDCA and OCA compared with the monocomposition comprising only UDCA for the patients with the following concentration level values of the claimed group of the markers (corresponding to 1 Stage of PBC): • IL-6—at least 10%; • Nf-kB—at least 5%; • MCP-1/CCL2—at least 5%; • Bcl-2—at least 5%; • TNF-α—at least 12%; • MDA—at least 0.5%.
The patients diagnosed with PBC were divided into 3 groups depending on the treatment regimen:
2) Group UDCA 15 mg/kg+OCA 5 mg;
3) Group UDCA 15 mg/kg+OCA 10 mg.
After the treatment, venous blood samples were taken from the patients and the concentrations of biochemical and molecular markers were determined.
As markers of the treatment effectiveness, two groups of markers were used: biochemical and molecular biological.
The first group included: ALT, AST, GGT (Gamma-glutamyl Transferase), AP and total bilirubin.
The second group included: TNF-α, IL-6, Nf-kB, MCP-1/CCL2, BCL-2, and MDA.

[4] = month 6 of treatment, listed as UDCA 15 mg/kg
[5] = month 12 of treatment, listed as UDCA 15 mg/kg

Structure (SMILES): CC[C@H]1[C@@H](O)[C@@H]2[C@H](CC[C@]3(C)[C@@H]([C@H](C)CCC(=O)O)CC[C@@H]23)[C@@]2(C)CC[C@@H](O)C[C@@H]12 [OCA, obeticholic acid]
- AUC(0-t) ([1]; in vivo, po): 34.8 ng·h/mL
- bioavailability ([1]; in vivo, po, read-out: Bioavailability): 89%
- Cmax ([1]; in vivo, po, read-out: Cmax): 16.7 ng/mL
- Tmax ([1]; listed as OCA 5 mg): 0.667 h
- AUCt ([1]; listed as OCA 10 mg): 66.1 ng·h/mL
- Cmax ([1]; listed as OCA 10 mg): 26.4 ng/mL
- Tmax ([1]; listed as OCA 10 mg): 1.5 h
- bioavailability ([1]; listed as OCA 10 mg): 91%

Structure (SMILES): C[C@H](CCC(=O)O)[C@H]1CC[C@H]2[C@@H]3[C@@H](O)C[C@@H]4C[C@H](O)CC[C@]4(C)[C@H]3CC[C@]12C [UDCA, ursodeoxycholic acid]
- Number of patients with positive response to treatment (%) [2]: 58.82%
- Number of patients with positive response to treatment (number) ([2]; groups of 68, 65, 63 patients): 40
- ALT ([3]; month 1 of treatment): 80.4 U/l
- ALT, in % of the initial value ([3]; month 1 of treatment): 97.22%
- AP ([3]; month 1 of treatment): 352.5 U/l
- AP, in % of the initial value ([3]; month 1 of treatment): 97.20%
- AST ([3]; month 1 of treatment): 100.7 U/l
- AST, in % of the initial value ([3]; month 1 of treatment): 95.72%
- Bcl-2 ([3]; month 1 of treatment): 0.68 U/ml
- Bcl-2, in % of the initial value ([3]; month 1 of treatment): 94.44%
- GGT ([3]; month 1 of treatment): 198 U/l
- GGT, in % of the initial value ([3]; month 1 of treatment): 95.42%
- IL-6 ([3]; month 1 of treatment): 23.35 pg/mL
- IL-6, in % of the initial value ([3]; month 1 of treatment): 99.19%
- MCP-1/CCL2 ([3]; month 1 of treatment): 465.4 pg/mL
- MCP-1/CCL2, in % of the initial value ([3]; month 1 of treatment): 99.34%
- MDA ([3]; month 1 of treatment): 22.87 nmol/mL
- MDA, in % of the initial value ([3]; month 1 of treatment): 99.09%
- Nf-kB ([3]; month 1 of treatment): 64.4 pg/mL
- Nf-kB, in % of the initial value ([3]; month 1 of treatment): 98.32%
- TNF-α ([3]; month 1 of treatment): 0.33 ng/mL
- TNF-α, in % of the initial value ([3]; month 1 of treatment): 100.00%
- Total bilirubin ([3]; month 1 of treatment): 39.8 µmol/L
- Total bilirubin, in % of the initial value ([3]; month 1 of treatment): 96.18%
- ALT ([3]; month 3 of treatment): 74.81 U/l
- ALT, in % of the initial value ([3]; month 3 of treatment): 90.46%
- AP ([3]; month 3 of treatment): 290.6 U/l
- AP, in % of the initial value ([3]; month 3 of treatment): 88.10%
- AST ([3]; month 3 of treatment): 87.3 U/l
- AST, in % of the initial value ([3]; month 3 of treatment): 82.98%
- Bcl-2 ([3]; month 3 of treatment): 0.62 U/ml
- Bcl-2, in % of the initial value ([3]; month 3 of treatment): 86.11%
- GGT ([3]; month 3 of treatment): 178.8 U/l
- GGT, in % of the initial value ([3]; month 3 of treatment): 86.17%
- IL-6 ([3]; month 3 of treatment): 22.95 pg/mL
- IL-6, in % of the initial value ([3]; month 3 of treatment): 97.49%
- MCP-1/CCL2 ([3]; month 3 of treatment): 448 pg/mL
- MCP-1/CCL2, in % of the initial value ([3]; month 3 of treatment): 95.62%
- MDA ([3]; month 3 of treatment): 22.54 nmol/mL
- MDA, in % of the initial value ([3]; month 3 of treatment): 97.66%
- Nf-kB ([3]; month 3 of treatment): 64.1 pg/mL
- Nf-kB, in % of the initial value ([3]; month 3 of treatment): 97.86%
- TNF-α ([3]; month 3 of treatment): 0.324 ng/mL
- TNF-α, in % of the initial value ([3]; month 3 of treatment): 98.18%
- Total bilirubin ([3]; month 3 of treatment): 33.8 µmol/L
- Total bilirubin, in % of the initial value ([3]; month 3 of treatment): 87.50%
- ALT, in % of the initial value [3, 4]: 67.32% and 82.47%
- AP, in % of the initial value [3, 4]: 63.93% and 74.45%
- AST, in % of the initial value [3, 4]: 67.24% and 77.38%
- Bcl-2, in % of the initial value [3, 4]: 95.24% and 80.56%
- GGT, in % of the initial value [3, 4]: 65.16% and 75.28%
- IL-6, in % of the initial value [3, 4]: 85.81% and 93.46%
- MCP-1/CCL2, in % of the initial value [3, 4]: 88.00% and 92.08%
- MDA, in % of the initial value [3, 4]: 95.36% and 96.92%
- Nf-kB, in % of the initial value [3, 4]: 91.91% and 95.88%
- TNF-α, in % of the initial value [3, 4]: 87.88% and 95.45%
- ALT ([3]; month 9 of treatment): 62.47 U/l
- ALT, in % of the initial value ([3]; month 9 of treatment): 75.54%
- AP ([3]; month 9 of treatment): 247.5 U/l
- AP, in % of the initial value ([3]; month 9 of treatment): 69.18%
- AST ([3]; month 9 of treatment): 74.5 U/l
- AST, in % of the initial value ([3]; month 9 of treatment): 70.82%
- Bcl-2 ([3]; month 9 of treatment): 0.54 U/ml
- Bcl-2, in % of the initial value ([3]; month 9 of treatment): 75.00%
- GGT ([3]; month 9 of treatment): 141.5 U/l
- GGT, in % of the initial value ([3]; month 9 of treatment): 68.19%
- IL-6 ([3]; month 9 of treatment): 21.48 pg/mL
- IL-6, in % of the initial value ([3]; month 9 of treatment): 91.25%
- MCP-1/CCL2 ([3]; month 9 of treatment): 419.7 pg/mL
- MCP-1/CCL2, in % of the initial value ([3]; month 9 of treatment): 89.58%
- MDA ([3]; month 9 of treatment): 22.12 nmol/mL
- MDA, in % of the initial value ([3]; month 9 of treatment): 95.84%
- Nf-kB ([3]; month 9 of treatment): 61.4 pg/mL
- Nf-kB, in % of the initial value ([3]; month 9 of treatment): 93.74%
- TNF-α ([3]; month 9 of treatment): 0.3 ng/mL
- TNF-α, in % of the initial value ([3]; month 9 of treatment): 90.91%
- Total bilirubin ([3]; month 9 of treatment): 28.03 µmol/L
- Total bilirubin, in % of the initial value ([3]; month 9 of treatment): 70.49%
- ALT ([3]; month 12 of treatment): 55.67 U/l
- ALT, in % of the initial value ([3]; month 12 of treatment): 67.32%
- AP ([3]; month 12 of treatment): 235.36 U/l
- AP, in % of the initial value ([3]; month 12 of treatment): 63.93%
- AST ([3]; month 12 of treatment): 70.73 U/l
- Bcl-2 ([3]; month 12 of treatment): 0.52 U/ml
- GGT ([3]; month 12 of treatment): 135.2 U/l
- GGT, in % of the initial value ([3]; month 12 of treatment): 65.16%
- IL-6 ([3]; month 12 of treatment): 20.2 pg/mL
- IL-6, in % of the initial value ([3]; month 12 of treatment): 85.81%
- MCP-1/CCL2 ([3]; month 12 of treatment): 412.3 pg/mL
- MCP-1/CCL2, in % of the initial value ([3]; month 12 of treatment): 88.00%
- MDA ([3]; month 12 of treatment): 22.01 nmol/mL
- MDA, in % of the initial value ([3]; month 12 of treatment): 95.36%
- Nf-kB ([3]; month 12 of treatment): 60.2 pg/mL
- Nf-kB, in % of the initial value ([3]; month 12 of treatment): 91.91%
- TNF-α ([3]; month 12 of treatment): 0.29 ng/mL
- TNF-α, in % of the initial value ([3]; month 12 of treatment): 87.88%
- Total bilirubin ([3]; month 12 of treatment): 26.03 µmol/L
- Total bilirubin, in % of the initial value ([3]; month 12 of treatment): 64.58%
- AST, in % of the initial value [3, 5]: 67.24% and 67.23%
- Bcl-2, in % of the initial value [3, 5]: 72% and 72.22%
